Two compounds from patent US11000033B2, “Ketone or oxime compound, and herbicide” (NISSAN CHEMICAL CORPORATION, priority 2014, dated 2021) can be followed below.

For one data set, the system named is Alopecurus myosuroides. Nature of the data set: Test Example 4: herbicidal effect by soil treatment (symbol J). Type of data set: in vivo. The settings on record: application herbicide amount 320 g/ha. The method in brief: (§1)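 Seeds were sown in sterilized diluvial soil, covered with about 1.5 cm of soil, and the soil surface was sprayed with a water-diluted emulsion of the compound at a predetermined rate. Plants grew in a greenhouse at 25° C. to 30° C.; effects were scored visually 3 weeks after application.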

For data set [1], the system named is Abutilon theophrasti. Nature of the data set: Test Example 4: herbicidal effect by soil treatment (symbol M). Type of data set: in vivo. To be noted: application herbicide amount 320 g/ha. The method in brief:
as §1

The subject of another data set is Scirpus juncoides. Description: Test Example 1: herbicidal activity, application before weed generation in submerged conditions (symbol B). Format: in vivo. To be noted: application herbicide amount 320 g/ha. In short, it runs like this: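 Pre-emergence, paddy conditions: emulsifiable formulation diluted in water, dosed onto floodwater (4 cm depth) on sowing day. Alluvial soil; weeds sown mixed; rice transplanted at 2.5-leaf stage. Greenhouse 25–30 °C, 3 wk. Score 0–5 (5 = ≥90% kill, 0 = ≤5%).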

The subject of data set [2] is Abutilon theophrasti. Description: Test Example 5: herbicidal effect by foliage application, plastic box (symbol M). The settings on record: 320 g/ha, 3 weeks after application. Type of data set: in vivo. In short, it runs like this:
(§2)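 Leaf-applied emulsion, water-diluted to a preset herbicide dose, on two-week-old seedlings raised in a 25° C. to 30° C. greenhouse; injury rated at 3 weeks using earlier criteria.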

A further data set relates to Digitaria ciliaris. Description: Test Example 5: herbicidal effect by foliage application, plastic box (symbol F). Type of data set: in vivo. To be noted: 320 g/ha, 3 weeks after application. The method in brief:
as §2

Another data set has as its system Galium spurium. Description: Test Example 5: herbicidal effect by foliage application, plastic box (symbol Q). Format: in vivo. The settings on record: 320 g/ha, 3 weeks after application. In short, it runs like this: as §2
In a further data set the test system is Amaranthus retroflexus. Nature of the data set: Test Example 5: herbicidal effect by foliage application, plastic box (symbol N). Type of data set: in vivo. The settings on record: 320 g/ha, 3 weeks after application. The method in brief:
as §2

The next data set deals with Cyperus difformis. Description: Test Example 3: herbicidal effect by foliage application, Wagner pot (symbol E). Format: in vivo. The settings on record: application herbicide amount 320 g/ha. The method in brief:
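Rating at 3 weeks post-spray, by defined criteria. Treatment: emulsion diluted with water to a predetermined amount, applied evenly to foliage of 14-day-old plants raised in alluvial soil flooded 0.1–0.5 cm deep at 25–30 °C, rice co-sown.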

The subject of the next data set is corn. Description: Test Example 4: effect on crop by soil treatment (symbol c). Format: in vivo. The settings on record: application herbicide amount 320 g/ha. In short, it runs like this: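 Diluvial soil (sterilized) in boxes; seeds placed spot-wise alongside weed species; ~1.5 cm covering soil. Greenhouse, 25–30° C.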

`CCc1cc(Br)cc(C)c1C1=C(O)CC(CC(C)=NOC)C1=O` (centres unmarked) [6-001]: the melting point (commonly the temperature of the solid-liquid transition) is 151 to 153 °C. Besides, the “J: Alopecurus myosuroides, herbicidal effect grade” value in the data set on Alopecurus myosuroides is 5 (Herbicidal ratio of 90% or more (almost completely withered)). Moreover, in the data set with Abutilon theophrasti [1], the “M: Abutilon theophrasti, herbicidal effect grade” value (“M: Abutilon theophrasti” for short) is recorded as 0 (Herbicidal ratio of 5% or lower (almost no effect)). The “Herbicidal effect grade, B: Scirpus juncoides” value in the data set with Scirpus juncoides is 0 (Herbicidal ratio of 5% or lower (almost no effect)). Also, in the data set on Abutilon theophrasti [2], the “M: Abutilon theophrasti” value is on record as 0 (Herbicidal ratio of 5% or lower (almost no effect)). For the same compound, in the data set with Digitaria ciliaris, the “F: Digitaria ciliaris, herbicidal effect grade” value is on record as 5 (Herbicidal ratio of 90% or more (almost completely withered)). Besides, in the data set on Galium spurium, the “Q: Galium spurium, herbicidal effect grade” value is listed as 0 (Herbicidal ratio of 5% or lower (almost no effect)). Moreover, in the data set with Amaranthus retroflexus, the “N: Amaranthus retroflexus, herbicidal effect grade” value is on record as 0 (Herbicidal ratio of 5% or lower (almost no effect)). In addition, in the data set with Cyperus difformis, the “herbicidal effect on E, grade 0-5” value is reported as 0 (Herbicidal ratio of 5% or lower (almost no effect)). Further, the “c: corn, effect on crop grade” value with corn is on record as 5 (Herbicidal ratio of 90% or more (almost completely withered)).

Regarding `CCc1cc(Br)cc(C)c1C1=C(O)CC(C(C(=O)OC)C(C)=NOC)C1=O` (centres unmarked) [6-002], the melting point was 184 to 188 °C. The “J: Alopecurus myosuroides, herbicidal effect grade” value with Alopecurus myosuroides is 2 (Herbicidal ratio of 20% or higher and lower than 40%). Besides, in the data set on Abutilon theophrasti [1], the “M: Abutilon theophrasti” value is 0 (Herbicidal ratio of 5% or lower (almost no effect)). Moreover, in the data set with Scirpus juncoides, the “Herbicidal effect grade, B: Scirpus juncoides” value is reported as 0 (Herbicidal ratio of 5% or lower (almost no effect)). Moreover, the “M: Abutilon theophrasti” value with Abutilon theophrasti [2] was 1 (Herbicidal ratio of 5% or higher and lower than 20%). The “F: Digitaria ciliaris, herbicidal effect grade” value with Digitaria ciliaris is given as 5 (Herbicidal ratio of 90% or more (almost completely withered)). Also, in the data set on Galium spurium, the “Q: Galium spurium, herbicidal effect grade” value is 0 (Herbicidal ratio of 5% or lower (almost no effect)). The “N: Amaranthus retroflexus, herbicidal effect grade” value in the data set with Amaranthus retroflexus is 0 (Herbicidal ratio of 5% or lower (almost no effect)). For the same compound, the “herbicidal effect on E, grade 0-5” value in the data set with Cyperus difformis is listed as 0 (Herbicidal ratio of 5% or lower (almost no effect)). In addition, the “c: corn, effect on crop grade” value with corn is given as 0 (Herbicidal ratio of 5% or lower (almost no effect)).
